Laboratory results published in paper PMC9029538, “Dosing Colistimethate Every 8 h Results in Higher Plasma Concentrations of Active Colistin Than Every 12-Hourly Dosing without Increase in Nephrotoxicity: A Phase 1 Pharmacokinetics Trial in Healthy Adult Volunteers” (Antibiotics, 2022).

Legend:
[1] = Neurotoxicity (paresthesias, ataxia, SARA scores); assay type: in vivo, healthy adult volunteers; parameters: key to SARA score: Nose–finger—right / SARA score: Nose–finger—left: 0: no tremor; 0.5: tremor with an amplitude < 2 cm (unilateral); 1: tremor with an amplitude < 2 cm (bilateral); key to SARA score: Fast alternating hand movements—right / SARA score: Fast alternating hand movements—left / SARA score: Heel–shin slide—right / SARA score: Heel–shin slide—left / SARA score: Sitting / SARA score: Speech disturbance: 0: normal; key to SARA score: Finger chase—right / SARA score: Finger chase—left: 0: normal, no dysmetria; 0.5: dysmetria, under/overshooting target < 5 cm (unilateral); 1: dysmetria, under/overshooting target < 5 cm (bilateral); key to Cumulative SARA Score / SARA score: Gait / SARA score: Stance: normal, able to stand in tandem for >10s; able to stand with feet together without sway, but not in tandem for >10s; 2: able to stand with feet together for >10s, but only with sway; settings: for Cumulative SARA Score / SARA score: Fast alternating hand movements—left / SARA score: Fast alternating hand movements—right / SARA score: Finger chase—left / SARA score: Finger chase—right / SARA score: Gait / SARA score: Heel–shin slide—left / SARA score: Heel–shin slide—right / SARA score: Nose–finger—left / SARA score: Nose–finger—right / SARA score: Sitting / SARA score: Speech disturbance / SARA score: Stance: highest score for any visit
Procedure: (§1) Safety assessments for TEAEs were conducted, including physical examinations (including neurological evaluations), […], vital signs, clinical laboratory tests, selected biomarkers for acute kidney injury (see section on kidney biomarkers), spirometry, and ECG measurements (see Supplementary Data S5 and S6 for clinical laboratory evaluations and schedule of events). If symptoms of ataxia were present, SARA (Scale for the Assessment and Rating of Ataxia, according to Schmitz-Hübsch et al.) assessment forms were completed to assess their severity.

[2] = Treatment-emergent adverse events, safety population; assay type: in vivo, healthy adult volunteers; settings: for Ataxia / Blood creatinine increased / Dizziness / Glycosuria / Proteinuria / Red blood cells urine / Renal and urinary disorders / White blood cells urine positive / Blood calcium decreased / Headache / Investigations / Lymphocyte count decreased / Nervous system disorders / Number of Subjects with at Least One Adverse Event / Paresthesia / Prothrombin time prolonged / Respiratory, thoracic and mediastinal disorders / Cough: TEAE, subjects n (%)
Procedure: as §1

With colistimethate sodium [CMS] the ataxia reported ([1]; Cohort 1) was “no ataxia”, the “Cumulative SARA Score” value ([1]; subject 20012078) was 1 and the “SARA score: Fast alternating hand movements—left” value ([1]; subject 20012078) was 0. The “SARA score: Fast alternating hand movements—right” value ([1]; subject 20012078) was 0, the “SARA score: Finger chase—left” value ([1]; subject 20012078) was 0 and the “SARA score: Finger chase—right” value ([1]; subject 20012078) was 0. For the same substance, the “SARA score: Gait” value ([1]; subject 20012078) was 1, the “SARA score: Heel–shin slide—left” value ([1]; subject 20012078) was 0 and the “SARA score: Heel–shin slide—right” value ([1]; subject 20012078) was 0. The “SARA score: Nose–finger—left” value ([1]; subject 20012078) was 0, the “SARA score: Nose–finger—right” value ([1]; subject 20012078) was 0 and the “SARA score: Sitting” value ([1]; subject 20012078) was 0. The “SARA score: Speech disturbance” value ([1]; subject 20012078) was 0, the “SARA score: Stance” value ([1]; subject 20012078) was 0 and the “SARA score: Fast alternating hand movements—left” value ([1]; subject 20012079) was 0. For the same substance, the “SARA score: Fast alternating hand movements—right” value ([1]; subject 20012079) was 0, the “SARA score: Finger chase—left” value ([1]; subject 20012079) was 0.5 and the “SARA score: Finger chase—right” value ([1]; subject 20012079) was 0. The “SARA score: Gait” value ([1]; subject 20012079) was 2, the “SARA score: Heel–shin slide—left” value ([1]; subject 20012079) was 0 and the “SARA score: Heel–shin slide—right” value ([1]; subject 20012079) was 0. The “SARA score: Nose–finger—left” value ([1]; subject 20012079) was 0, the “SARA score: Nose–finger—right” value ([1]; subject 20012079) was 0 and the “SARA score: Sitting” value ([1]; subject 20012079) was 0. For the same substance, the “SARA score: Speech disturbance” value ([1]; subject 20012079) was 0, the “SARA score: Stance” value ([1]; subject 20012079) was 2 and the “SARA score: Fast alternating hand movements—left” value ([1]; subject 20012080) was 0. For the same substance, the “SARA score: Fast alternating hand movements—right” value ([1]; subject 20012080) was 0, the “SARA score: Finger chase—left” value ([1]; subject 20012080) was 0 and the “SARA score: Finger chase—right” value ([1]; subject 20012080) was 0. The “SARA score: Gait” value ([1]; subject 20012080) was 3, the “SARA score: Heel–shin slide—left” value ([1]; subject 20012080) was 0 and the “SARA score: Heel–shin slide—right” value ([1]; subject 20012080) was 0. For the same substance, the “SARA score: Nose–finger—left” value ([1]; subject 20012080) was 0.5, the “SARA score: Nose–finger—right” value ([1]; subject 20012080) was 0.5 and the “SARA score: Sitting” value ([1]; subject 20012080) was 0. For the same substance, the “SARA score: Speech disturbance” value ([1]; subject 20012080) was 0, the “SARA score: Stance” value ([1]; subject 20012080) was 2 and the “SARA score: Fast alternating hand movements—left” value ([1]; subject 20012081) was 0. The “SARA score: Fast alternating hand movements—right” value ([1]; subject 20012081) was 0, the “SARA score: Finger chase—left” value ([1]; subject 20012081) was 0 and the “SARA score: Finger chase—right” value ([1]; subject 20012081) was 0.5. For the same substance, the “SARA score: Gait” value ([1]; subject 20012081) was 1, the “SARA score: Heel–shin slide—left” value ([1]; subject 20012081) was 0 and the “SARA score: Heel–shin slide—right” value ([1]; subject 20012081) was 0. The “SARA score: Nose–finger—left” value ([1]; subject 20012081) was 0, the “SARA score: Nose–finger—right” value ([1]; subject 20012081) was 0 and the “SARA score: Sitting” value ([1]; subject 20012081) was 0. The “SARA score: Speech disturbance” value ([1]; subject 20012081) was 0, the “SARA score: Stance” value ([1]; subject 20012081) was 0 and the “Cumulative SARA Score” value ([1]; subject 20012082) was 2. The “SARA score: Fast alternating hand movements—left” value ([1]; subject 20012082) was 0, the “SARA score: Fast alternating hand movements—right” value ([1]; subject 20012082) was 0 and the “SARA score: Finger chase—left” value ([1]; subject 20012082) was 0. The “SARA score: Finger chase—right” value ([1]; subject 20012082) was 0, the “SARA score: Gait” value ([1]; subject 20012082) was 1 and the “SARA score: Heel–shin slide—left” value ([1]; subject 20012082) was 0. The “SARA score: Heel–shin slide—right” value ([1]; subject 20012082) was 0, the “SARA score: Nose–finger—left” value ([1]; subject 20012082) was 0 and the “SARA score: Nose–finger—right” value ([1]; subject 20012082) was 0. The “SARA score: Sitting” value ([1]; subject 20012082) was 0, the “SARA score: Speech disturbance” value ([1]; subject 20012082) was 0 and the “SARA score: Stance” value ([1]; subject 20012082) was 1. For the same substance, the Ataxia ([2]; Cohort 1 (N = 9)) was 0, the Blood creatinine increased ([2]; Cohort 1 (N = 9)) was 0 and the Dizziness ([2]; Cohort 1 (N = 9)) was 0. For the same substance, the Glycosuria ([2]; Cohort 1 (N = 9)) was 0, the Proteinuria ([2]; Cohort 1 (N = 9)) was 1 (11.1%) and the “Red blood cells urine” value ([2]; Cohort 1 (N = 9)) was 0. The “Renal and urinary disorders” value ([2]; Cohort 1 (N = 9)) was 1 (11.1%), the “White blood cells urine positive” value ([2]; Cohort 1 (N = 9)) was 0 and the Blood calcium decreased ([2]; Cohort 2 (N = 10)) was 0. For the same substance, the Blood creatinine increased ([2]; Cohort 2 (N = 10)) was 1 (10.0%), the Glycosuria ([2]; Cohort 2 (N = 10)) was 0 and the Headache ([2]; Cohort 2 (N = 10)) was 5 (50.0%). For the same substance, the Investigations ([2]; Cohort 2 (N = 10)) was 6 (60.0%), the Lymphocyte count decreased ([2]; Cohort 2 (N = 10)) was 1 (10.0%) and the Nervous system disorders ([2]; Cohort 2 (N = 10)) was 10 (100.0%). The “Number of Subjects with at Least One Adverse Event” value (“Number of Subjects” for short) ([2]; Cohort 2 (N = 10)) was 10 (100.0%), the Paresthesia ([2]; Cohort 2 (N = 10)) was 10 (100.0%) and the Prothrombin time prolonged ([2]; Cohort 2 (N = 10)) was 3 (30.0%). For the same substance, the “Red blood cells urine” value ([2]; Cohort 2 (N = 10)) was 1 (10.0%), the “Respiratory, thoracic and mediastinal disorders” value ([2]; Cohort 2 (N = 10)) was 3 (30.0%) and the Ataxia ([2]; Cohort 3 (N = 12)) was 10 (83.3%). The Blood calcium decreased ([2]; Cohort 3 (N = 12)) was 4 (33.3%), the Cough ([2]; Cohort 3 (N = 12)) was 2 (16.7%) and the Dizziness ([2]; Cohort 3 (N = 12)) was 2 (16.7%). For the same substance, the Headache ([2]; Cohort 3 (N = 12)) was 4 (33.3%), the Investigations ([2]; Cohort 3 (N = 12)) was 11 (91.7%) and the Lymphocyte count decreased ([2]; Cohort 3 (N = 12)) was 1 (8.3%). The Nervous system disorders ([2]; Cohort 3 (N = 12)) was 11 (91.7%), the “Number of Subjects” value ([2]; Cohort 3 (N = 12)) was 11 (91.7%) and the Paresthesia ([2]; Cohort 3 (N = 12)) was 9 (75.0%). The Proteinuria ([2]; Cohort 3 (N = 12)) was 7 (58.3%), the Prothrombin time prolonged ([2]; Cohort 3 (N = 12)) was 1 (8.3%) and the “Renal and urinary disorders” value ([2]; Cohort 3 (N = 12)) was 7 (58.3%). For the same substance, the “Respiratory, thoracic and mediastinal disorders” value ([2]; Cohort 3 (N = 12)) was 2 (16.7%), the “White blood cells urine positive” value ([2]; Cohort 3 (N = 12)) was 7 (58.3%) and the Ataxia ([2]; Overall (N = 31)) was 17 (54.8%). For the same substance, the Blood calcium decreased ([2]; Overall (N = 31)) was 6 (19.4%), the Blood creatinine increased ([2]; Overall (N = 31)) was 5 (16.1%) and the Cough ([2]; Overall (N = 31)) was 6 (19.4%). For the same substance, the Dizziness ([2]; Overall (N = 31)) was 5 (16.1%), the Glycosuria ([2]; Overall (N = 31)) was 5 (16.1%) and the Headache ([2]; Overall (N = 31)) was 14 (45.2%). The Investigations ([2]; Overall (N = 31)) was 24 (77.4%), the Lymphocyte count decreased ([2]; Overall (N = 31)) was 4 (12.9%) and the Nervous system disorders ([2]; Overall (N = 31)) was 27 (87.1%). For the same substance, the “Number of Subjects” value ([2]; Overall (N = 31)) was 30 (96.8%), the Paresthesia ([2]; Overall (N = 31)) was 24 (77.4%) and the Proteinuria ([2]; Overall (N = 31)) was 10 (32.3%). The Prothrombin time prolonged ([2]; Overall (N = 31)) was 7 (22.6%), the “Red blood cells urine” value ([2]; Overall (N = 31)) was 4 (12.9%) and the “Renal and urinary disorders” value ([2]; Overall (N = 31)) was 10 (32.3%). The “Respiratory, thoracic and mediastinal disorders” value ([2]; Overall (N = 31)) was 8 (25.8%), the “White blood cells urine positive” value ([2]; Overall (N = 31)) was 9 (29.0%) and the “AEs that occurred during Period 1” value ([2]; Period 1 (IV), of all AEs) was 138/287. For the same substance, the “total AEs reported” value ([2]; overall) was 287, the “serious TEAE” value ([2]; resulted in discontinuation of the subject) was “one serious TEAE of acute kidney injury” and the deaths ([2]; whole study) was “no deaths”.
